This passage reports activation results from US20260159519A1, “IMIDAZOPYRIDAZINE SUBSTITUTED BENZENE RING DERIVATIVE, PREPARATION METHOD, PHARMACEUTICAL COMPOSITION AND USE” (SHANGHAI SIMR BIOTECHNOLOGY CO., LTD., priority 2022, published 2026).

The experiment deals with T1, human α2-GABAA receptor (α2-GABAAR-HEK293 cells) (Homo sapiens, UniProt P18507+P47869).
T1 construct: expressed in transfected cells
In words: Whole-cell patch-clamp electrophysiology, positive allosteric modulatory activity on α2-GABAA receptor. Type of experiment: cell-based. As to conditions: read-out: α2-GABAA positive allosteric modulatory activity. On the technique in general: Patch clamp records ionic current or voltage across a cell membrane.

T1 sequence (P47869 29-451): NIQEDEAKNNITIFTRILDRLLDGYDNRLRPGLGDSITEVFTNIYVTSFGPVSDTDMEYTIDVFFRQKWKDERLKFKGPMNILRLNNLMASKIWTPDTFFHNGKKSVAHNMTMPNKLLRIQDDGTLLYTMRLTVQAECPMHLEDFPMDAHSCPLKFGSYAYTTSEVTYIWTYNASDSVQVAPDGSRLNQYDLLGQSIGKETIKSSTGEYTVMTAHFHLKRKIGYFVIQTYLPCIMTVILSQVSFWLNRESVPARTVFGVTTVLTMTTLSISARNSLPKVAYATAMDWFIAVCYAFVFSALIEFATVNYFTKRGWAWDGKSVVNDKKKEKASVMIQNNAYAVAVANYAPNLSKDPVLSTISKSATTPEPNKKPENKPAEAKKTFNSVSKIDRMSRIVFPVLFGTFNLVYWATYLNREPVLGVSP
T1 sequence (P18507 40-467 isoform P18507-1 limits assumed): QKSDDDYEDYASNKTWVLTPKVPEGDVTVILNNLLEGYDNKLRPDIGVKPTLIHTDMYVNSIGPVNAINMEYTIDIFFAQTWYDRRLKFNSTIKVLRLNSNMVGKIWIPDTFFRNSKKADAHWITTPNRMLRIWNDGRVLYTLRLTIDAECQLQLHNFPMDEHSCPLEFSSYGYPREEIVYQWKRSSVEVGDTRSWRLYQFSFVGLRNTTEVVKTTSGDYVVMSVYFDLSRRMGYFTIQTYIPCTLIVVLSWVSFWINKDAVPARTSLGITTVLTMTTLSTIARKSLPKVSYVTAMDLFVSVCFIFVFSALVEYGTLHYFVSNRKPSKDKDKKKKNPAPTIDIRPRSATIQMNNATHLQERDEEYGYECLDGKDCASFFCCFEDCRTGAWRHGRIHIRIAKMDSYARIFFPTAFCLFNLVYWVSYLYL
T1 sequence (P28472 26-473 partner): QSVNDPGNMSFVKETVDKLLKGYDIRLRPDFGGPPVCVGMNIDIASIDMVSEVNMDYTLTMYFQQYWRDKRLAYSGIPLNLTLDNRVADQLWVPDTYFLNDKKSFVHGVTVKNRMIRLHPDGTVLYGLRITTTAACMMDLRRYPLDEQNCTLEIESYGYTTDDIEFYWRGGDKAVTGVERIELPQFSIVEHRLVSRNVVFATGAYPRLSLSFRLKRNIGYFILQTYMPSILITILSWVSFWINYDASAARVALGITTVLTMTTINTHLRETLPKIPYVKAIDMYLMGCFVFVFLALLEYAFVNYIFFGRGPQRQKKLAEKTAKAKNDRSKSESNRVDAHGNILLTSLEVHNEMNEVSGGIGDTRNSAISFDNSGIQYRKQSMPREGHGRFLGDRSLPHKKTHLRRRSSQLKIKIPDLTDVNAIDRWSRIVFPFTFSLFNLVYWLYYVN

`CCN1C(=O)COc2cc(-c3cc(-c4cnnc5c4ncn5CC)ccc3F)c(OC)cc21` [Example 31, 4-Ethyl-7-(5-(7-ethyl-7H-imidazo[4,5-c]pyridazin-4-yl)-2-fluorophenyl)-6-methoxy-2H-benzo[b][1,4]oxazin-3(4H)-one]: the activation at 0.1 µM was determined as 96%.
Turning to `COc1cc2c(cc1-c1cc(-c3cnnc4c3ncn4C(C)C)ccc1F)OCC(=O)N2C` [Example 36, 7-(2-Fluoro-5-(7-isopropyl-7H-imidazo[4,5-c]pyridazin-4-yl)phenyl)-6-methoxy-4-methyl-2H-benzo[b][1,4]oxazin-3(4H)-one], the activation at 0.1 µM came out at 137%.
As for `CCn1cnc2c(-c3ccc(F)c(-c4cc5c(cc4OC)N(C)C(=O)CO5)c3)cnnc21` [Example 42, 7-(5-(7-Ethyl-7H-imidazo[4,5-c]pyridazin-4-yl)-2-fluorophenyl)-6-methoxy-4-methyl-2H-benzo[b][1,4]oxazin-3(4H)-one], the activation at 0.1 µM worked out at 145%.
Consider `CCn1cnc2c(-c3ccc(F)c(-c4cc5oc(=O)n(C)c5cc4OC)c3)cnnc21` [Example 87, 6-(5-(7-Ethyl-7H-imidazo[4,5-c]pyridazin-4-yl)-2-fluorophenyl)-5-methoxy-3-methylbenzo[d]oxazol-2(3H)-one], for which the activation at 0.1 µM was found to be 114%.
Turning to `CCn1cnc2c(-c3ccc(F)c(-c4cc5c(cc4OC)N(C)C(=O)C5)c3)cnnc21` [Example 161, 5-(5-(7-Ethyl-7H-imidazo[4,5-c]pyridazin-4-yl)-2-fluorophenyl)-6-methoxy-1-methyldihydro-2-one], the activation at 0.1 µM worked out at 118%.
